Values after ≈ are worked out from the molar mass of the structure shown. Like-named read-outs stand apart in the source and are kept apart here.
Legend:
[1] = parameters: species or system SD rats; settings: rat, in vivo, po, 88 mg
Experimental: The microcapsules were orally administered to 7 week-old male SD rats (Sprague Dawley, Samtako, 4 rats per one group, 7 days feeding ad libitum) by using Sonde. Blood samples were taken from the rats in a predetermined time interval, and the respective pharmacokinetic profiles were evaluated.

physchem = settings: water, thermodynamic from solid
Experimental: Each of distilled water and artificial intestinal juice (pH 6.8; USP) was added thereto to fill 100 mL, and the mixture was vigorously blended for 1 hr and passed through a 0.45 μm filter, followed by HPLC analysis.

[2] = fenofibric acid in plasma; cited from earlier work

CC(C)(Oc1ccc(C(=O)c2ccc(Cl)cc2)cc1)C(=O)[O-].C[N+](C)(C)CCO [Choline fenofibrate]
AUC 0-24 [1]: 3477.7 ± 558.9 µg·h/mL
Cmax [1]: 309.4 ± 62.2 µg/mL

CC(C)OC(=O)C(C)(C)Oc1ccc(C(=O)c2ccc(Cl)cc2)cc1 [Fenofibrate]
AUC 0-24 ([1]; male, Sprague-Dawley): 2078.3 ± 610.5 µg·h/mL
Cmax ([1]; male, Sprague-Dawley): 137.2 ± 37.9 µg/mL

CC(C)(Oc1ccc(C(=O)c2ccc(Cl)cc2)cc1)C(=O)O [Fenofibric acid, 2-[4-(4-chlorobenzoyl)phenoxy]-2-methyl-propanoic acid]
solubility at 1 hr (physchem): 165 µg/mL (≈ 518 µM)
AUC 0-24 ([1]; male, Sprague-Dawley): 2742.2 ± 218.1 µg·h/mL
Cmax ([1]; male, Sprague-Dawley): 209.3 ± 26.1 µg/mL
half-life of elimination in plasma [2]: about 20 hours
time of peak plasma levels after administration [2]: about 5 hours
